In patent US20200377485A1, “HYDANTOIN MODULATORS OF KV3 CHANNELS” (AUTIFONY THERAPEUTICS LIMITED, priority 2015, published 2020):
Values belong to the compound of their own block, whether it stands above or below them.

Assays:
[1] = tested on: rat model of neuropathic pain; test: Neuropathic pain model, partial ligation of the sciatic nerve, paw withdrawal threshold to mechanical force; format: in vivo
Method: (§1) Subjects comprised male, Wistar Hanover rats, 6 animals per group (225±2 g).
(§2) Vehicle (12% Captisol®; 0.5% w/v HPMC and 0.1% w/v Tween-80; 5 ml/kg via the intraperitoneal route) was prepared using autoclaved deionized water not more than one week prior to use.
The control for the neuropathic pain model was lamotrigine, administered at 30 mg/kg via oral delivery. The control for the inflammatory pain model was diclofenac, administered at 30 mg/kg via oral delivery. Statistical analysis was performed using one-way ANOVA, and comparisons were performed with time-matched vehicle group using Tukey's HSD test wherein * p<0.05, ** p<0.01, *** p<0.001. […]
Withdrawal thresholds were measured on both the ipsilateral (ligated) and contralateral (non-ligated) paws, prior to (predose) and then up to 24 h following drug or vehicle administration.
Pre-dose behavioural measurements were obtained by measuring paw withdrawals 14 days following nerve ligation; before the initiation of drug treatment. Following treatment, further readings were taken at 1, 3, 6 and 24 hour after administration. […]
Data were expressed as withdrawal threshold (g) and percentage reversals calculated according to the following formula: […]
Statistical analysis was carried out on withdrawal threshold readings using ANOVA with repeated measures followed by Tukey's HSD test. […]

[2] = General observations of behaviour during the pain studies; format: in vivo, rat; conditions: acute administration, 10-60 mg/kg i.p., neuropathic and inflammatory pain models
From the text: In addition to behavioural pain readings, each rat was observed throughout the study for changes in general behaviour.

[3] = tested on: rat model of persistent inflammatory pain; test: Persistent inflammatory pain model, intraplantar Freund's Complete Adjuvant, paw withdrawal threshold to mechanical force; format: in vivo
Method: as §1, §2
The control for the neuropathic pain model was lamotrigine, administered at 30 mg/kg via oral delivery. The control for the inflammatory pain model was diclofenac, administered at 30 mg/kg via oral delivery. Statistical analysis was performed using one-way ANOVA, and comparisons were performed with time-matched vehicle group using Tukey's HSD test wherein * p<0.05, ** p<0.01, *** p<0.001.
Mechanical hyperalgesia was examined in a model of persistent inflammatory pain. […]
To assess the effect of the test compound, paw withdrawal thresholds were measured on both the ipsilateral (FCA-injected) and contralateral (non-injected) paws, prior to (naïve) and 24 h following FCA injection (predose), and then at 1, 3, 6 and 24 h after drug or vehicle administration.
Mechanical hyperalgesia was examined in a model of neuropathic pain by measuring paw withdrawal thresholds (PWT) to increasing mechanical force applied to the dorsal surface of the rat paw using an Analgesymeter (Ugo-Basile, Milan) equipped with a wedge-shaped probe (area 1.75 mm^2). […] Both ipsilateral and contralateral paw withdrawal readings were taken. […]

[4] = biological target: T1, human Kv3.2 channels (hKv3.2) (Homo sapiens, UniProt Q96PR1); test: IonWorks Quattro electrophysiology, hKv3.2 stable CHO-K1 cell line (potentiation; secondary analysis of activation time Tauact); format: cell-based; conditions: -15 mV depolarising step; concentration chosen to give ~0.3 nA at end of pulse: RE1 6.25, RE3 0.2, RE9 0.2, Example 1 0.8 μM; vehicle 7.1 ms
T1 construct: expressed in transfected cells
T1 sequence (Q96PR1 1-638): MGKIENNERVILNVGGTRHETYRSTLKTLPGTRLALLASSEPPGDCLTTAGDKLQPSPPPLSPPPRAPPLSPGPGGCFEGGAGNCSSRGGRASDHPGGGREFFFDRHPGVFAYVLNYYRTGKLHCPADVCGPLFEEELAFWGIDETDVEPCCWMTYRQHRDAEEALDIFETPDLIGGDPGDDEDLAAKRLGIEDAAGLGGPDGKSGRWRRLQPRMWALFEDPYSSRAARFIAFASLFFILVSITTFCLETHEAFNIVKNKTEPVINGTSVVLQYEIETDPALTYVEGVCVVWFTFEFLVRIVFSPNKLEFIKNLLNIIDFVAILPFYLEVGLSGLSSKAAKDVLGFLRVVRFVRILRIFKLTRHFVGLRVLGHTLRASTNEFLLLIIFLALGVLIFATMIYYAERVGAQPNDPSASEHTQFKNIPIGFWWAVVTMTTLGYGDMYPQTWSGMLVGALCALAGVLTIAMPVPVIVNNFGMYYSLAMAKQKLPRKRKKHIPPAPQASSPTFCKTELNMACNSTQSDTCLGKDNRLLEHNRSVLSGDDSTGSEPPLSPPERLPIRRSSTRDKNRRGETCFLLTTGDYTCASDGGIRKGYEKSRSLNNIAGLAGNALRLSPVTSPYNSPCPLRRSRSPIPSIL

Compound: Cc1ccc(Oc2ncc(N3C(=O)NC(C)(C)C3=O)cn2)c2c1OCC21CC1 [Compound X, 5,5-dimethyl-3-[2-(7-methylspiro[2H-benzofuran-3,1-cyclopropane]-4-yl)oxypyrimidin-5-yl]imidazolidine-2,4-dione]
reversal of mechanical sensitivity, in words ([1]; 10, 30, 60 mg/kg i.p.): dose-related reversal of mechanical sensitivity with rapid onset and long duration of action
changes in normal (general) behaviour [2]: without causing significant changes in normal behaviour
reversal of mechanical sensitivity, in words ([3]; 10, 30, 60 mg/kg i.p.): dose-related reversal of mechanical sensitivity with rapid onset of action

Compound: CC[C@@]1(C)NC(=O)N(c2ccc(Oc3ccc(C)c4c3C3(CC3)CO4)cn2)C1=O [Example 1, (5R)-5-ethyl-5-methyl-3-[5-(7-methylspiro[2H-benzofuran-3,1′-cyclopropane]-4-yl)oxy-2-pyridyl]imidazolidine-2,4-dione]
Tauact mean (activation time constant of hKv3.2 current) [4]: 18.2 ms

Compound: O=C(O)Cc1ccccc1Nc1c(Cl)cccc1Cl [diclofenac]
peak reversal of mechanical sensitivity (positive control) ([3]; 30 mg/kg oral, 1 h post-dose): 64%

Compound: Nc1nnc(-c2cccc(Cl)c2Cl)c(N)n1 [lamotrigine]
peak reversal of mechanical sensitivity (positive control) ([1]; 30 mg/kg oral, 3 h post-dose): 67%

The remaining lines, values ahead:

Tauact mean (activation time constant of hKv3.2 current) [4]: 9.9 ms
Compound: CC[C@H]1NC(=O)N(c2ccc(Oc3ccc(C)c(OC)c3)nc2)C1=O [RE1, (5R)-5-ethyl-3-(6-{[4-methyl-3-(methyloxy)phenyl]oxy}-3-pyridinyl)-2,4-imidazolidinedione]

Tauact mean (activation time constant of hKv3.2 current) [4]: 23.0 ms
Compound: CC[C@H]1NC(=O)N(c2ccc(Oc3ccc(C#N)cc3C(C)(C)C)nc2)C1=O [RE3, 3-(1,1-dimethylethyl)-4-({5-[(4R)-4-ethyl-2,5-dioxo-1-imidazolidinyl]-2-pyridinyl}oxy)benzonitrile]
